In patent US20240100116A1, “EUCOMMIA ULMOIDES OLIV. LEAF EXTRACT CAPABLE OF PROTECTING HEALTH OF KIDNEY FUNCTION, AND PREPARATION AND DETECTION METHODS THEREOF” (Chenland Nutritionals Inc., priority 2023, published 2024):

Molecular target: xanthine oxidase (Homo sapiens, UniProt P47989)
Experiment: Xanthine oxidase (XOD) inhibition, uric acid production read at OD290 nm
Type: biochemical
Conditions: read-out: Inhibition rate (%)
Protocol: Xanthine oxidase catalyzes a xanthine substrate to produce uric acid and superoxide anion, and uric acid has a characteristic absorption peak under 290 nm UV conditions. By measuring the change curve of absorbance value within a certain time, the slope of this curve is the production rate of the uric acid, to measure the change of the activity of xanthine oxidase, so as to judge the uric acid lowering ability of the sample.
92.4 μL of xanthine oxidase mother solution (5 U/770 μL) is drawn in a centrifuge tube, and diluted with 11.9076 mL of PBS to obtain 0.05 U/mL xanthine oxidase working solution which shall be prepared for immediate use.
0.02284 g of xanthine is weighed in a beaker; 1.2 mL of 1 mol/L NaOH solution is added; ultrasonic treatment is conducted for 20 min; and the volume is fixed to 100 mL with the PBS to obtain 1.5 mmol/L xanthine working solution.
Eucommia ulmoides Oliv. leaf extract solutions: 0.50 g of corresponding Eucommia ulmoides Oliv. leaf extract sample in embodiment 5 is weighed; the volume is fixed to 50 mL with the PBS; the solution is thoroughly mixed well to prepare 10.0 mg/mL mother solution; and the mother solution is diluted with the PBS to different multiples to obtain different concentrations of Eucommia ulmoides Oliv. solutions.
2.1 A proper quantity of centrifugal tubes are taken and numbered as OD1, OD2, OD3 and OD4 respectively. Reagents are added to each tube according to the combinations of Table 1.
The concentrations are plotted in horizontal coordinates and the inhibition rates are plotted in vertical coordinates to calculate the concentration IC50 with half inhibition rate.

Chain of xanthine oxidase (P47989 whole entry, species assumed): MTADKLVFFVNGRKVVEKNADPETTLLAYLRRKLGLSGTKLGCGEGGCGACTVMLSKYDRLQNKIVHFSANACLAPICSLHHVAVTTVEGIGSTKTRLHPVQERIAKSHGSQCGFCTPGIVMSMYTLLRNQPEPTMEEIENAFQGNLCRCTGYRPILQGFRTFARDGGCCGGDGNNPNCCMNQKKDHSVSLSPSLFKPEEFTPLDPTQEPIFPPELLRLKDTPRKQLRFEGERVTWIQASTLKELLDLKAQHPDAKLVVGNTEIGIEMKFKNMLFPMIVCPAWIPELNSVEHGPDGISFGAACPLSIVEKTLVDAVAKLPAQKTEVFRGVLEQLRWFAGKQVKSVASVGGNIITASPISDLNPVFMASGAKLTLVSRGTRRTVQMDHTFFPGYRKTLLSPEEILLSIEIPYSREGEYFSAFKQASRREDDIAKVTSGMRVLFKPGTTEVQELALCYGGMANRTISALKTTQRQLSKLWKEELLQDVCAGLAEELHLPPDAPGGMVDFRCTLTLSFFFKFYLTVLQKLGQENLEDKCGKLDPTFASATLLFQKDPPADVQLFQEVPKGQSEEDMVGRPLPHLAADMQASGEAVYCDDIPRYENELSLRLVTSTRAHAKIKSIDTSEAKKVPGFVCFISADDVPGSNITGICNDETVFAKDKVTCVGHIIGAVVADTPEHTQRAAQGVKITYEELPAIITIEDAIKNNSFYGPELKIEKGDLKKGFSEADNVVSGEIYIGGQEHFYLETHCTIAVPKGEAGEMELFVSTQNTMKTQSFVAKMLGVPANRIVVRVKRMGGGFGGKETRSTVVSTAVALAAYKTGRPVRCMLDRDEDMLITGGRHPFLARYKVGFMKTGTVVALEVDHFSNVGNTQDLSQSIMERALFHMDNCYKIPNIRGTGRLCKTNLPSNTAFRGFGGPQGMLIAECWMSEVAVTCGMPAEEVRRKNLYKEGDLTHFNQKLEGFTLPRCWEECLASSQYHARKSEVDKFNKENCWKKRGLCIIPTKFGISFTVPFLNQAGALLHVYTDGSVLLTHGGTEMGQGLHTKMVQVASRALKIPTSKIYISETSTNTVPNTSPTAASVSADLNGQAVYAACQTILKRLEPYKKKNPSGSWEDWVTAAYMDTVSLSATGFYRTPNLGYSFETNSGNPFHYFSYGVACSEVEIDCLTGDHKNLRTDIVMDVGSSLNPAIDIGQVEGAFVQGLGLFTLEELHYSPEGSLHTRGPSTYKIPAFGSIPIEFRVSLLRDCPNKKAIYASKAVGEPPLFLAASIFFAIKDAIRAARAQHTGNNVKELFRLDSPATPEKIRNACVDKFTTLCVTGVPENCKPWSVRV

For `Oc1ncnc2[nH]ncc12` [Allopurinol, allopurinol], the inhibition at 0.05 µg/mL (0.05 μg/ml) was 34.1%, the inhibition at 1 µg/mL (1 μg/ml) was 44.9% and the inhibition at 5 µg/mL (5 μg/ml) was 59.4%. For the same compound, the inhibition at 10 µg/mL (10 μg/ml) was 74%, the inhibition at 15 µg/mL (15 μg/ml) was 81.2% and the inhibition at 20 µg/mL (20 μg/ml) was 87.2%. The inhibition at 25 µg/mL (25 μg/ml) was 93.3%.
